The nature of data set [1]: Solubility of the crystals in solvents. In kind it is physicochemical.
Data set [2] concerns PEG-modified esterase (carboxyl esterase). Nature of the data set: Acetylation of lankacidin C to lankacidin A by PEG-modified esterase with different acetyl group donors (Lineweaver-Burk analysis). Format: biochemical, Streptomyces rochei var. volubilis. As to conditions: acetyl group donor as substrate, 11 mM lankacidin C in methyl isobutyl ketone, 37° C., least-squares method from Table 2; for Vmax: lankacidin A formed. As to the method: 2 ml of a solution of 11 mM concentrations of lankacidin C and 50 mM concentrations of acetic anhydride in methyl isobutyl ketone was put in a 20 ml test tube with stopper, to which was added 0.3 ml of a solution of PEG-modified esterase in 0.2M tris(hydroxymethyl) aminomethane-maleic acid buffer (pH 7.0), the concentration of PEG-modified esterase of which was 12 mg per ml, followed by shaking with shaking apparatus (80 spm) at 37° C.
By high-performance liquid chromatography (hereinafter referred to briefly as HPLC method) as described below, the amount of lankacidin A formed was measured at the time shown in Table 1.
By changing the concentration of acetyl group donor to those shown of Table 2, with the reaction time being 20 min., the same procedure as in Example 1 was conducted.
By using Lineweaver-Burk's equation of the formula 2 [Biochemical Dictionary, first edition, page 1314 (1984), Tokyokagakudozin Ltd.] derived by modifying the Michaelis-Menten equation of formula 1 [Op Cit. page 1239], the reaction using acetic anhydride as an acetyl group donor was compared with that using ethyl acetate as acetyl group donor. [formula]
By putting values of the concentration of acetyl group donor shown in Table 2 in the place of [S]o, and values of the amount of lankacidin A formed shown in Table 2 in the place of .nu., values of Km and Vmax were calculated by means of the least-squares method.

Structures are written as SMILES.

For the compound `CCC(=O)OC1C=CC2OC2CC(C)OC(=O)CC(OC(=O)CC)C(OC)C(OC2OC(C)C(OC3CC(C)(O)C(OC(=O)CC)C(C)O3)C(N(C)C)C2O)C(CC=O)CC1C` (centres unmarked) [9-propionyl maridomycin III], in data set [1] (acetone), the Solubility in acetone result was “readily soluble”. Besides, the Solubility in chloroform entry in data set [1] (chloroform) was “relatively soluble”. In addition, the Solubility in ethanol entry in data set [1] (ethanol) was “readily soluble”. Besides, in data set [1] (methanol), the Solubility in methanol entry is recorded as “readily soluble”. Moreover, the Solubility in water result in data set [1] (water) is reported as “hardly soluble”.

Regarding `CCOC(C)=O` [Ethyl acetate, ethyl acetate], the Vmax in data set [2] turned out to be 5.40 mM/20 min.

Broadly, the Km is the substrate concentration at which the rate is half of its maximum. On to `CC(=O)OC(C)=O` [Acetic anhydride, acetic anhydride], for which, in data set [2] (reaction time 20 min.), the Michaelis constant (Km) was 7.69 mM. In addition, the Vmax in data set [2] is 6.59 mM/20 min.
